Test results taken from ChEMBL document CHEMBL2176907, “Identification of multiple 5-HT₄ partial agonist clinical candidates for the treatment of Alzheimer's disease” (J Med Chem, 2012).
One block for each compound: values may come before it. The source made the active and inactive calls. No cut-off for these calls is given here.

Key:
MDR1 = assay: in vitro; details: dog, MDCK-MDR1
Description: Efflux ratio of permeability from basal to apical to apical to basal side of MDCK cells expressing MDR1 at 2 uM after 5 hrs by transwell assay

[1] = molecular target: T1, 5-hydroxytryptamine receptor 4 (Homo sapiens, UniProt Q13639); assay: Agonist activity at human 5HT4D receptor expressed in HEK293 cells assessed as cAMP production after 30 mins by HTRF assay relative to 5HT; assay type: functional, cell-based
CYP2D6 = CYP2D6 (Homo sapiens, UniProt P10635); assay: Inhibition of CYP2D6 in human liver microsomes using dextromethorphan as substrate at 3 uM; assay type: ADME, Microsome; details: probe dextromethorphan
[2] = molecular target: T1, 5-hydroxytryptamine receptor 4; assay: biochemical
Description: Displacement of [3H]GR113808 from human 5HT4D receptor expressed in HEK293 cells after 30 mins by liquid scintillation counting

[3] = Intrinsic clearance in human liver microsomes; assay type: ADME, Microsome; details: read-out: CLH
[4] = molecular target: T1, 5-hydroxytryptamine receptor 4; assay: Agonist activity at human 5HT4D receptor expressed in HEK293 cells assessed as cAMP production after 30 mins by HTRF assay; assay type: functional, cell-based
[5] = Apparent permeability from apical to basal side of RRCK cells at 2 uM after 2 hrs by transwell assay; assay type: ADME, cell-based, Canis lupus familiaris, MDCKII-LE; details: dog, MDCK
[6] = Oral bioavailability in rat; assay type: ADME, organism-based; details: in vivo
[7] = AUC (0 to 4 hrs) in sc dosed Sprague-Dawley rat CSF by LC-MS/MS analysis; assay type: ADME, organism-based; design: time < 4 hr, route subcutaneous
Rattus norvegicus [8] = assay: Receptor occupancy of 5HT4 receptor in Sprague-Dawley rat brain at 1 mg/kg, sc up to 4 hrs; assay type: functional; details: route subcutaneous
[9] = Intrinsic clearance in dog liver microsomes; assay type: ADME, Canis lupus familiaris, Microsome; details: read-out: CLH
Rattus norvegicus [10] = assay: Neurotoxicity in Sprague-Dawley rat assessed as convulsions at 100 mg/kg administered as repeated dose for 7 days measured up to 1 month; assay type: toxicity, organism-based; design: dose 100 mg/kg; details: in vivo, 168 h
[11] = Intrinsic clearance in rat liver microsomes; assay type: ADME, Microsome; details: read-out: CLH
Rattus norvegicus [12] = assay: Procognitive activity in Wistar rat assessed as reversal of scopolamine-induced learning deficit at […], sc administered 30 mins prior to scopolamine-challenge measured on acquisition days 3 and 4 by Morris water maze testing; assay type: functional, organism-based; design: dose 0.032 mg/kg
[13] = Clearance in iv dosed rat; assay type: ADME, organism-based; details: in vivo
Rattus norvegicus [14] = assay: Gastrointestinal toxicity in Sprague-Dawley rat assessed as decrease in food intake administered as repeated dose for 7 days measured up to 1 month; assay type: organism-based; details: in vivo, 168 h
Brain = assay: Free AUC (0 to 4 hrs) in sc dosed Sprague-Dawley rat brain by LC-MS/MS analysis; assay type: ADME, organism-based; details: in vivo
Canis familiaris [15] = assay: Gastrointestinal toxicity in beagle dog assessed as decrease in food intake administered as repeated dose for 7 days measured up to 1 month; assay type: organism-based, Canis lupus familiaris; details: in vivo, 168 h
[16] = Clearance in iv dosed dog; assay type: ADME, organism-based, Canis lupus familiaris; details: in vivo
Rattus norvegicus [17] = assay: Gastrointestinal toxicity in male Sprague-Dawley rat assessed as reduction in body weight at 100 mg/kg administered as repeated dose for 7 days measured up to 1 month; assay type: organism-based; design: dose 100 mg/kg; details: in vivo, 168 h
Canis familiaris [18] = assay: Cardiotoxicity in beagle dog assessed as increase in systolic blood pressure at 10 mg/kg administered as repeated dose for 7 days measured up to 1 month; assay type: toxicity, organism-based, Canis lupus familiaris, Artery; design: dose 10 mg/kg; details: in vivo, 168 h
Rattus norvegicus [19] = assay: Procognitive activity in Sprague-Dawley rat assessed as increase in acetylcholine level in prefrontal cortex at 1 mg/kg, sc after 3 hrs by brain microdialysis relative to control; assay type: functional, organism-based; design: dose 1 mg/kg
Rattus norvegicus [20] = assay: Receptor occupancy of 5HT4 receptor in Wistar rat at […], sc; details: route subcutaneous
Plasma = assay: Free AUC (0 to 4 hrs) in sc dosed Sprague-Dawley rat plasma by LC-MS/MS analysis; assay type: ADME, organism-based; details: in vivo
Canis familiaris [21] = assay: Neurotoxicity in beagle dog assessed as convulsions at 30 mg/kg administered as repeated dose for 7 days measured up to 1 month; assay type: toxicity, organism-based, Canis lupus familiaris; design: dose 30 mg/kg; details: in vivo, 168 h
Canis familiaris [22] = assay: Gastrointestinal toxicity in beagle dog assessed as emesis at 30 mg/kg administered as repeated dose for 7 days measured up to 1 month; assay type: organism-based, Canis lupus familiaris; design: dose 30 mg/kg; details: in vivo, 168 h
[23] = Ratio of free drug concentration in brain to free drug concentration in plasma in sc dosed Sprague-Dawley rat; assay type: ADME, organism-based; details: read-out: K(p,uu,brain)
[24] = Oral bioavailability in dog; assay type: ADME, organism-based, Canis lupus familiaris; details: in vivo
Rattus norvegicus [25] = assay: Displacement of [3H]SB207145 from 5HT4 receptor in sc dosed Sprague-Dawley rat striatal membrane incubated for 45 mins prior to [3H]SB207145-adminsitration measured after 15 mins; assay type: functional, organism-based; details: Striatum
[26] = molecular target: 5-hydroxytryptamine receptor 4 (Rattus norvegicus) (UniProt Q62758); assay: Agonist activity at 5HT4 receptor in rat oesophagus assessed as reversal of carbamylcholine-induced contraction at 10 uM incubated at 7 mins post carbamylcholine-challenge measured after 30 mins relative to 5HT; assay type: functional
Chain of 5-hydroxytryptamine receptor 4 (Rattus norvegicus) (Q62758 whole entry): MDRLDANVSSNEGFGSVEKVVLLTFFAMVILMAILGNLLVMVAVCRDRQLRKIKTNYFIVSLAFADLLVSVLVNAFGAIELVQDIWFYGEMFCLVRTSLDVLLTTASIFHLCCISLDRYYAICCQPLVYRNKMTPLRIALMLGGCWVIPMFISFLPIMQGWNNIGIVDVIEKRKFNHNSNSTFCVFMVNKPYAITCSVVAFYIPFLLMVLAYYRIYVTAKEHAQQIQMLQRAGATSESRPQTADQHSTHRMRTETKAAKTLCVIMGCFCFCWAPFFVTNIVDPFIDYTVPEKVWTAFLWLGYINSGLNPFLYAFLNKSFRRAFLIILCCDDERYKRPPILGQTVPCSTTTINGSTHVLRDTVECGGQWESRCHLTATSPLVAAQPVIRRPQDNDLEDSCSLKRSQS

Chain of CYP2D6 (P10635 whole entry): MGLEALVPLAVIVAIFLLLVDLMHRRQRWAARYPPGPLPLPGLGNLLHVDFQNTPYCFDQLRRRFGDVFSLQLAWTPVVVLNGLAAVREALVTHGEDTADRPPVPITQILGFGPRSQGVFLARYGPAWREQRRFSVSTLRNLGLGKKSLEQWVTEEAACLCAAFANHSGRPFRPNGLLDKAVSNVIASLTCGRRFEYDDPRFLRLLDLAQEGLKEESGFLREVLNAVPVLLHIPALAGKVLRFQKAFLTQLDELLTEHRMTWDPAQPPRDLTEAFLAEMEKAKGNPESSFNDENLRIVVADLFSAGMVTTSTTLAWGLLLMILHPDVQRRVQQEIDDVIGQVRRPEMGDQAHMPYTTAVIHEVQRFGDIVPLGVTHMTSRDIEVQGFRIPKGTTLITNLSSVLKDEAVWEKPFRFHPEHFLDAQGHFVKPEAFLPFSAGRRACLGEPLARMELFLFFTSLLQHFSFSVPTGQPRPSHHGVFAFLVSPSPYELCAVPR
T1 sequence (Q13639 whole entry): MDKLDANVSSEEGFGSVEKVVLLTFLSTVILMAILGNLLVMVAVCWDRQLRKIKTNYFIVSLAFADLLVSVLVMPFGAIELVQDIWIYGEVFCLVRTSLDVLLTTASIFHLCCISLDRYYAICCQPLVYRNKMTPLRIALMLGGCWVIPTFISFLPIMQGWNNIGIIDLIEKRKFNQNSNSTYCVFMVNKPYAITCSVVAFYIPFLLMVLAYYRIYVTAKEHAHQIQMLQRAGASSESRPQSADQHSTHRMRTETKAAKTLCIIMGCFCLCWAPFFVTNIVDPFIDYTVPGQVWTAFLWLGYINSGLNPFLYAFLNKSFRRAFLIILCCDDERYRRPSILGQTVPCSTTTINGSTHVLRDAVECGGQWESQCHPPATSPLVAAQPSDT

Compound: O[C@@H]1CC[C@@H](Oc2cccc3onc(OCC4CCN(CC5(O)CCOCC5)CC4)c23)C1
efflux ratio at 5 h, 2 µM (MDR1): 2.2
Emax [1]: 28%
inhibition at 3 µM (CYP2D6): 37%
Ki [2]: 0.5 nM
CLint scaled [3]: 56 mL/min/kg
EC50 [4]: 0.4 nM
Papp A→B at 2 h, 2 µM [5]: 15 ×10⁻⁶ cm/s

Compound: OC1(CN2CCC(COc3noc4cccc(O[C@@H]5CCOC5)c34)CC2)CCOCC1 [PF-04995274]
bioavailability [6]: 40%
AUC(0-t) at 4 h [7]: 0.519 µM·h
Occ (Rattus norvegicus [8]): >90%
CLint scaled [9]: 27.9 mL/min/kg
Activity (Rattus norvegicus [10]): Toxic
CLint scaled [11]: 48.9 mL/min/kg
Activity (Rattus norvegicus [12]): Active
clearance [13]: 81.8 mL/min/kg
Activity (Rattus norvegicus [14]): Toxic
inhibition at 3 µM (CYP2D6): 13%
fAUC (Brain): 0.706 µM·h
Activity (Canis familiaris [15]): Toxic
clearance [16]: 21.2 mL/min/kg
Activity (Rattus norvegicus [17]): Toxic
Activity (Canis familiaris [18]): Toxic
Activity (Rattus norvegicus [19]): Active
Occ (Rattus norvegicus [20]): >90%
CLint scaled [3]: 33 mL/min/kg
fAUC (Plasma): 1.054 µM·h
Activity (Canis familiaris [21]): Toxic
Activity (Canis familiaris [22]): Toxic
Kp uu [23]: 0.7
bioavailability [24]: 47%
Papp A→B at 2 h, 2 µM [5]: 30 ×10⁻⁶ cm/s
Activity (Rattus norvegicus [25]): Dose-dependent effect

Compound: COCCCN1CCC(NC(=O)c2cc(Cl)c(N)c3c2OCC3)CC1
Activity [26]: Active

Now from value to compound:

efflux ratio at 5 h, 2 µM (MDR1): 1.6
Emax [1]: 50%
inhibition at 3 µM (CYP2D6): 21%
Ki [2]: 3.6 nM
CLint scaled [3]: 38 mL/min/kg
EC50 [4]: 1.7 nM
Papp A→B at 2 h, 2 µM [5]: 35 ×10⁻⁶ cm/s
Compound: CC(C)(O)COc1cccc2onc(OCC3CCN(CC4(O)CCOCC4)CC3)c12

inhibition at 3 µM (CYP2D6): 93%
Compound: CCCCN1CCC(COc2noc3cccc(OCC4CCC4)c23)CC1
